Legend:
[1] = Antiinflammatory activity against mouse Y16 cells assessed as inhibition of IL5 production; type: functional, cell-based
[2] = Antiinflammatory activity against mouse Y16 cells assessed as inhibition of IL5 production at 30 uM; type: functional
[3] = Antiinflammatory activity against mouse Y16 cells assessed as inhibition of IL5 production at 50 uM; type: functional

Row | IC50 [1] [µM] | SMILES | inhibition at 30 µM [2] [%] | inhibition at 50 µM [3] [%]
1 | 22.9 | O=c1c(Cc2ccccc2)coc2cccc(OCC3CCCCC3)c12 | 56 | –
2 | < 3 | O=c1c(Cc2ccc(O)cc2)coc2cccc(OCC3CCCCC3)c12 | 98 | –
3 | 7.6 | O=c1c(CO)coc2cccc(OCC3CCCCC3)c12 | 84 | –
4 | 21.6 | CC(C)COc1cccc2occ(CO)c(=O)c12 | 56 | –
5 | > 30 | CCc1ccc(Cc2coc3cccc(OCC4CCCCC4)c3c2=O)cc1 | 45 | –
6 | > 30 | O=c1c(Cc2ccc(Cl)cc2)coc2cccc(OCC3CCCCC3)c12 | 36 | –
7 | > 30 | O=c1c(Cc2ccc(C(F)(F)F)cc2)coc2cccc(OCC3CCCCC3)c12 | 47 | –
8 | > 30 | Cc1ccc(Cc2coc3cccc(OCCC(C)C)c3c2=O)cc1 | 35 | –
9 | > 30 | O=C(O)c1coc2cccc(OCC3CCCCC3)c2c1=O | 43 | –
10 | > 30 | CC(C)COc1cccc2occ(CCC(=O)O)c(=O)c12 | < 10 | –
11 | > 30 | O=c1c(/C=N/O)coc2cccc(OCC3CCCCC3)c12 | < 10 | –
12 | > 30 | O=c1c(CCl)coc2cccc(OCC3CCCCC3)c12 | 45 | –
13 | > 30 | CC(C)COc1cccc2occ(CCl)c(=O)c12 | 43 | –
14 | > 30 | NS(=O)(=O)c1ccc(Cc2coc3cccc(OCC4CCCCC4)c3c2=O)cc1 | 31 | –
15 | 12.3 | O=C(O)c1ccc(Cc2coc3cccc(OCC4CCCCC4)c3c2=O)cc1 | 77 | –
16 | 14.8 | Cc1ccc(Cc2coc3cccc(OCC4CCCCC4)c3c2=O)cc1 | 86 | –
17 | > 30 | CC(C)COc1cccc2occ(C(=O)O)c(=O)c12 | 33 | –
18 | 11.4 | CC(C)COc1cccc2occ(Cc3ccc(C(=O)O)cc3)c(=O)c12 | 73 | –
19 | > 30 | O=C(O)CCc1coc2cccc(OCC3CCCCC3)c2c1=O | < 10 | –
20 | > 30 | CC(C)COc1cccc2occ(/C=N/O)c(=O)c12 | < 10 | –
21 | > 30 | CC(C)CCOc1cccc2occ(Cc3ccc(O)cc3)c(=O)c12 | 36 | –
22 | 12.5 | COc1cc(Cc2coc3cccc(OCC4CCCCC4)c3c2=O)cc(OC)c1OC | 85 | –
23 | 10.3 | O=c1c(-c2ccc(O[C@@H]3O[C@H](CO)[C@@H](O)[C@H](O)[C@H]3O)cc2)coc2cc(O)cc(O)c12 [SOPHORICOSIDE] | – | 93.8
